Results as given in patent US10633339B2, “Tricyclic sulfone compound as a ROR gamma modulator” (BRISTOL-MYERS SQUIBB COMPANY, priority 2018, dated 2020).

Experiments:
[1] = Glutathione conjugate formation in rat liver cytosol incubations; format: in vitro ADME
Procedure: (§1) Assay for Glutathione Conjugate formation in Rat or Human Cytosol Incubations Compound A and Compound 1 were incubated at a concentration of 10 μM with rat or human liver cytosol (3-5 mg/mL) (male Sprague-Dawley rat liver cytosol, lot BIM, n=100 purchased from Bioreclamation IVT, or mixed gender pool, lot 452115, n=150 purchased from Corning) in 1 mL of potassium phosphate buffer (50 mM, pH 8.5). The reactions (n=2, total volume=1000 μL) were initiated by the addition of glutathione (GSH) (5 mM) and incubated at 37° C. in a thermomixer. At 0 and 60 min, aliquots (100 μL) of the reaction mixtures were collected, and reactions were terminated by adding two volumes of acetonitrile. Proteins were then removed using a Millipore Sigma (Massachusetts, BA) Multiscreen Solvinert filter plate, by centrifugation (Eppendorf 5810 R, Hamburg, Germany) at 2000 rpm for 5 min. The filtrate was collected in a 96-well plate and was analyzed by high resolution Velos LTQ-Orbitrap (LC-UV/MS) system. UV absorbance was collected from 220-600 nm. […] The degrees of formation of GSH conjugates from the two compounds is shown below. Entries represent UV peak areas calculated relative to the parent compound at 260-280 nm. Data in parentheses represent the averages of the two experiments.

[2] = Glutathione conjugate formation in human liver cytosol incubations; format: in vitro ADME; settings: 10 μM compound, 5 mM GSH, 37° C., 60 min; UV peak area relative to parent at 260-280 nm; n=2
Procedure: as §1

GSH conjugate, Rat Cytosol UV Area (%), individual experiments ([1]; 10 μM compound, 5 mM GSH, 37° C., 60 min, UV peak area relative to parent at 260-280 nm, n=2): not detected | GSH adduct formation (statement in words) ([1]; based on in vitro experiments (rat or human cytosol, not given)): did not form a GSH adduct | GSH conjugate, Human Cytosol UV Area (%), individual experiments [2]: not detected
Compound: C[C@H]1C[C@H](C(=O)O)CC[C@H]1C(=O)N1CC[C@@]2(S(=O)(=O)c3ccccc3)c3cc(F)c(C(F)(C(F)(F)F)C(F)(F)F)cc3CC[C@@H]12 [Compound 1, (1R,3S,4R)-4-((3aR,9bR)-8-fluoro-7-(perfluoropropan-2-yl)-9b-(phenylsulfonyl)-2,3,3a,4,5,9b-hexahydro-1H-benzo[e]indole-3-carbonyl)-3-methylcyclohexane-1-carboxylic acid]
